The text below walks through data of patent publication US10285943B2, “Aptamer bioconjugate drug delivery device” (GreenMark Biomedical Inc., priority 2010, dated 2019).

This data set has as its system D 245 glioblastoma multiform human xenograph. Briefly: In vivo studies of human xenographs implanted in athymic mice. To be noted: Free Dox control. As for the experimental part:
Athymic mice were chosen for these studies because normal mice are capable of immunologically rejecting implanted foreign xenographs, specifically human tumors. The animals (both control and treated) were monitored for tumor regression and survival.
The procedure consisted of inoculation of a tumor brei into a subcutaneous site in athymic mice. The subcutaneous tumors were grown to approximately 200 cubic millimeters in size (6-8 mm in diameter). Subsequently, either the free drug or the drug loaded nanoparticles were injected at the tumor site or i.p. (intra peritoneal). […] The animals were treated in groups of 8 to 10 individuals.
Dispersions were 100 mg nanospheres/5 mL saline (1×0.5% Dox-nano), 200 mg nanospheres/5 mL saline (2×0.5% Dox-nano) or 400 mg nanospheres/5 mL saline (4×0.5% Dox-nano).
Injections were each 0.25 mL/20 gram mouse (all single injections).
T-C is defined as: Average of (days lived by drug-treated animal minus days lived by control animals); i.e., increased life span in days.
The Control was provided as follows: Varied—Untreated mice injected with saline; Untreated mice; Mice treated with drug-free nanospheres (100 mgs/5 mL saline).
P value: Test run for significance. P values are calculated using non-parametric statistical method by Hollander and Wolfe.
Regressions: Indicate that tumors drop below previous measurement and stay below for 2 consecutive measurements.

Consider “(7S,9S)-7-[(2R,4S,5S,6S)-4-amino-5-hydroxy-6-methyloxan-2-yl]oxy-6,9,11-trihydroxy-9-(2-hydroxyethyl)-4-methoxy-8,10-dihydro-7H-tetracene-5,12-dione [Free Dox]”, for which, where the note is “5 mg/kg, animals with regression/group”, the Regressions is recorded as 0/10. Moreover, the Toxic deaths (5 mg/kg, deaths/group) was 0/10. Also, the “T-C (increased life span in days)” value (drug dose 5 mg/kg, injected at the tumor site or i.p.) worked out at 1.53 days.
